According to US7528123B1, “Estrogenic estra-1,3,5(10)-trienes with differential effects on the alpha and beta estrogen receptors, having a linear hydrocarbon chain of from 5-9 carbon atoms in position 11” (N.V. Organon, priority 1998, dated 2009):

Experiments:
[1] = target: T1, human estrogen receptor α (Homo sapiens, UniProt P03372); assay: CHO-ERα bioassay: luciferase transactivation, estrogenic and anti-estrogenic activity; type: cell-based; details: agonist or antagonist in recombinant CHO cells with hERα, rat oxytocin promoter, luciferase reporter; standard Org 2317 (estradiol)
T1 construct: expressed in transfected cells; host or cells: CHO cells (CHO-ERRO 2B1-1E9), stably co-transfected with rat oxytocin promoter-luciferase reporter
T1 sequence (P03372 1-595): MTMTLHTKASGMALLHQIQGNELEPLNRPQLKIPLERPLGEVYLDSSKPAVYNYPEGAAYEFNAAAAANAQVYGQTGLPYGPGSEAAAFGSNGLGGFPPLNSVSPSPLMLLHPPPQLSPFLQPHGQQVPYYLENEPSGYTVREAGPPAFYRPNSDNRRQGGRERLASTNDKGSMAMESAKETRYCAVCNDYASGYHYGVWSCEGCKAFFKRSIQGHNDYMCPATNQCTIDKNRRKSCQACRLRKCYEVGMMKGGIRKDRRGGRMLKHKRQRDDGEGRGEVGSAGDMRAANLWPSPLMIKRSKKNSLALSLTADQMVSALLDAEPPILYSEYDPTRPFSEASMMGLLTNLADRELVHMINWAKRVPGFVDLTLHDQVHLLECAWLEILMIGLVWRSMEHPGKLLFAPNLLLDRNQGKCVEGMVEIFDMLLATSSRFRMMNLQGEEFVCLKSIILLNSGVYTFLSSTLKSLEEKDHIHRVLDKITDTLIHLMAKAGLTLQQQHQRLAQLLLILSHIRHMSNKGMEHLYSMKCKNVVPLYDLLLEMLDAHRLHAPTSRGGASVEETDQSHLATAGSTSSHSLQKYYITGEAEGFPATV
Method: (§1) Test medium: Intact recombinant CHO cells stably co-transfected with the rat oxytocin promoter and the luciferase reporter gene and either the human estrogen receptor β or the human estrogen receptor α. Both cell lines have been produced within the Department of Biotechnology and Biochemistry (BBC) (N. V. Organon) and are known under the name CHO-ERRO 2B1-1E9 for CHO-ERα and CHO-ERβ RO LUC for CHO-ERβ. The estrogenic activity of compounds is determined in an in vitro bioassay (CHO-ERα) with recombinant Chinese hamster ovary (CHO) cells stably co-transfected with the human estrogen α (hERα), the rat oxytocin promoter (RO) and the luciferase reporter gene (LUC). The estrogenic activity (potency ratio) of a test compound to promote the transactivation of the enzyme luciferase mediated via the estrogen receptor α is compared with the standard estrogen Org 2317 (estradiol 1,3,5 (10)-estratriene-3,17β-diol). The estrogenic activity (potency ratio) of a test compound to promote the transactivation of the enzyme luciferase mediated via the estrogen receptor β is determined in the same fashion but using recombinant Chinese hamster ovary (CHO) cells stably co-transfected with the human estrogen β (hERβ) (bioassay CHO-ERβ). The anti-estrogenic activity of compounds is determined in the same bioassays (CHO-ERα and CHO-ERβ), but now the anti-ERα and anti-ERβ activity (potency ratio) of a test compound to inhibit the transactivation of the enzyme luciferase mediated via ERα or ERβ by Org 2317 (estradiol 1,3,5 (10)-estratriene-3,17β-diol) is measured.

[2] = target: T2, human estrogen receptor β (Homo sapiens, UniProt Q92731); assay: CHO-ERβ bioassay: luciferase transactivation, estrogenic and anti-estrogenic activity; type: cell-based; details: agonist or antagonist in recombinant CHO cells with hERβ, rat oxytocin promoter, luciferase reporter; standard Org 2317 (estradiol)
T2 construct: expressed in transfected cells; host or cells: CHO cells (CHO-ERβ RO LUC), stably co-transfected with rat oxytocin promoter-luciferase reporter
T2 sequence (Q92731 whole entry): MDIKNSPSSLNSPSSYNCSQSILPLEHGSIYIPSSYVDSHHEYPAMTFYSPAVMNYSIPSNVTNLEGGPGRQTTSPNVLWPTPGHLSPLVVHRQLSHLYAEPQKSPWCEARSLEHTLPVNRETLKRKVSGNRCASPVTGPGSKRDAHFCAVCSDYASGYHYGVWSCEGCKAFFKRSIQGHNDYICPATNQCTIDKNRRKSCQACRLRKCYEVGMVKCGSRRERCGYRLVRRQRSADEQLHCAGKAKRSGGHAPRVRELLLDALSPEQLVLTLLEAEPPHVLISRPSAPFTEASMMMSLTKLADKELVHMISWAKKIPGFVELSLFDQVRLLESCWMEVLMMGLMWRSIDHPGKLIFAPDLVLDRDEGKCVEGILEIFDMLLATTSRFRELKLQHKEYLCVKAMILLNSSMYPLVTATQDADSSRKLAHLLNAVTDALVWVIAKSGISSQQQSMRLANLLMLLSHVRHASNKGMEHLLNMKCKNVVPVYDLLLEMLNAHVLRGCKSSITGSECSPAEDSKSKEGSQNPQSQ
Method: as §1

Row | Structure (SMILES) | ER-α [1] | ER-β [2]
1 | C=CC[C@H]1C[C@]2(C)[C@@H](O)CC[C@H]2[C@@H]2CCc3cc(O)ccc3[C@@H]12 [Compound 1] | agonist | agonist
2 | C=CCC[C@H]1C[C@]2(C)[C@@H](O)CC[C@H]2[C@@H]2CCc3cc(O)ccc3[C@@H]12 [Compound 2] | agonist | agonist
3 | C=CCCC[C@H]1C[C@]2(C)[C@@H](O)CC[C@H]2[C@@H]2CCc3cc(O)ccc3[C@@H]12 [Compound 3] | agonist | antagonist
4 | C#CCC[C@H]1C[C@]2(C)[C@@H](O)CC[C@H]2[C@@H]2CCc3cc(O)ccc3[C@@H]12 [Compound 4] | agonist | agonist
5 | CC#CCC[C@H]1C[C@]2(C)[C@@H](O)CC[C@H]2[C@@H]2CCc3cc(O)ccc3C12 (stereo partly shown) [Compound 5] | agonist | antagonist
6 | C#CCCC[C@H]1C[C@]2(C)[C@@H](O)CC[C@H]2[C@@H]2CCc3cc(O)ccc3[C@@H]12 [Compound 6] | agonist | antagonist
7 | C[C@]12C[C@H](CC=C3CC3)[C@@H]3c4ccc(O)cc4CC[C@H]3[C@@H]1CC[C@@H]2O [Compound 7] | agonist | agonist
8 | C[C@]12C[C@H](CCC=C3CC3)[C@@H]3c4ccc(O)cc4CC[C@H]3[C@@H]1CC[C@@H]2O [Compound 8] | agonist | antagonist
9 | CCC[C@H]1C[C@]2(C)[C@@H](O)CC[C@H]2[C@@H]2CCc3cc(O)ccc3[C@@H]12 [Compound 9] | agonist | agonist
10 | CCCC[C@H]1C[C@]2(C)[C@@H](O)CC[C@H]2[C@@H]2CCc3cc(O)ccc3[C@@H]12 [Compound 10] | agonist | agonist
11 | CCCCC[C@H]1C[C@]2(C)[C@@H](O)CC[C@H]2[C@@H]2CCc3cc(O)ccc3[C@@H]12 [Compound 11] | agonist | antagonist
